Data from patent US20110195900A1, “PEPTIDIC PTH RECEPTOR AGONISTS” (FERRING B.V., priority 2008, published 2011).
Read-outs that look alike come from different tables or passages of the source. Non-standard residues stand in square brackets, D forms with d. Residues, ends and D or L forms follow the SMILES beside them. 1Nal = N[C@@H](Cc1cccc2ccccc12)C(=O)O; 2Nal = N[C@@H](Cc1ccc2ccccc2c1)C(=O)O; β3hI = CC[C@H](C)[C@H](N)CC(=O)O; Nle = CCCC[C@H](N)C(=O)O; Aib = CC(C)(N)C(=O)O; βAla = NCCC(=O)O

Key:
[1] = target: T1, human PTH-2 receptor (Homo sapiens, UniProt P49190); test: Luciferase-based transcriptional reporter gene assay for selectivity; type: cell-based
T1 construct: expressed in transfected cells
Procedure: Agonist activity of compounds on the human PTH-1 receptor was determined in a reporter gene assay by transiently transfecting HEK-293 cells with plasmids encoding human PTH-1 receptor under control of the SV40 promoter and a luciferase reporter gene under control of cAMP responsive elements (CRE). See Himmler et al, J. Recept. Res. 13 (1993) 79-94, for further guidance on this assay. Transfected cells were exposed to serial dilutions of compounds for 4-5 hours followed by lysis of cells, determination of luciferase activity, and determination of compound efficacies and EC50 values through non-linear regression.
PTH (1-34) was used as an internal control in each experiment and compounds were tested in at least three independent experiments. To determine selectivity, compounds were tested in luciferase-based transcriptional reporter gene assays expressing the human PTH-2 receptor.

[2] = target: T2, human PTH-1 receptor (Homo sapiens, UniProt Q03431); test: Reporter gene assay (CRE-luciferase) for agonist activity in transiently transfected HEK-293 cells; type: cell-based; details: for hPTHR-2/hPTHR-1: ratio of EC50 values, selectivity for hPTH-1 receptor over hPTH-2 receptor
T2 construct: expressed in transfected cells; host or cells: HEK-293
T2 sequence (Q03431 27-593): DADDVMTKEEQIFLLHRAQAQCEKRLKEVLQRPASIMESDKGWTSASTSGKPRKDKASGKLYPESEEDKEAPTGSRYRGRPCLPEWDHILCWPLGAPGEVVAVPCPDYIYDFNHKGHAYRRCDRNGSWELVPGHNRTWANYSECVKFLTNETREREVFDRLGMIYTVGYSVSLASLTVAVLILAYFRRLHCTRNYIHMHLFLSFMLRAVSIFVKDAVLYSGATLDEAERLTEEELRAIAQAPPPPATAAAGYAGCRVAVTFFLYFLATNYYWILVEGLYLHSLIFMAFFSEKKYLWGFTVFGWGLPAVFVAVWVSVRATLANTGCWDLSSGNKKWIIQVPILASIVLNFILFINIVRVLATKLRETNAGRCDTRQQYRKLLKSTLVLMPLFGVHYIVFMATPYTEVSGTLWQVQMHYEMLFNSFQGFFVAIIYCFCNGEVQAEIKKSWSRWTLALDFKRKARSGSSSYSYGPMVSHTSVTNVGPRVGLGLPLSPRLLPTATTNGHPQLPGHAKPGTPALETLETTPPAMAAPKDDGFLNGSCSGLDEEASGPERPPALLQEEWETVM
How it was run: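 Selectivity came from luciferase transcriptional reporter assays expressing human PTH-2 receptor. PTH-1 agonism used transiently transfected HEK-293 cells carrying SV40-promoter receptor and cAMP-responsive-element luciferase; 4-5 h compound exposure, lysis, luminescence, non-linear-regression EC50/efficacy; ≥3 independent runs, PTH (1-34) control each.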

T1 sequence (P49190 25-550): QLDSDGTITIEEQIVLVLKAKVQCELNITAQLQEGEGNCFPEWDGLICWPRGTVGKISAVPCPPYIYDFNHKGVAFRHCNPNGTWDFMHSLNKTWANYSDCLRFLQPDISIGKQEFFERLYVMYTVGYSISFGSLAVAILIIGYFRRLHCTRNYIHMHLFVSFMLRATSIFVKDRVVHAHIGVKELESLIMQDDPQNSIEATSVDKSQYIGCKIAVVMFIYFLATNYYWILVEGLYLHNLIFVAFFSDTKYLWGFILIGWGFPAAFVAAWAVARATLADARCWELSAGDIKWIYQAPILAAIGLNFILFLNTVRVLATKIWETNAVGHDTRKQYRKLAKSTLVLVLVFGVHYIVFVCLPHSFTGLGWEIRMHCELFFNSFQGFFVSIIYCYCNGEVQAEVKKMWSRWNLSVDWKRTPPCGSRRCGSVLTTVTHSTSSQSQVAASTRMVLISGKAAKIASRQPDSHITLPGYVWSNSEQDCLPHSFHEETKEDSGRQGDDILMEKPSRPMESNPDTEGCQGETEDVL

| Compound | EC50 [1] | EC50 [2] | hPTHR-2/hPTHR-1 ([2]; Table 3) | potency at the hPTH-1 receptor compared to PTH (1-34) ([2]; in words) | EC50 ([1]; Table 3, luciferase reporter gene assay, read-out: hPTHR-2 EC50) | EC50 ([2]; Table 3, HEK-293 cells, CRE-luciferase, 4-5 hours exposure, read-out: hPTHR-1 EC50) |
| --- | --- | --- | --- | --- | --- | --- |
| CCCC[C@H](NC(=O)[C@H](CC(C)C)NC(=O)[C@H](CCC(N)=O)NC(=O)[C@@H](NC(=O)[C@H](CCC(=O)O)NC(=O)[C@H](CO)NC(=O)[C@@H](NC(=O)C(C)(C)N)C(C)C)[C@@H](C)CC)C(=O)N[C@@H](Cc1c[nH]cn1)C(=O)N[C@@H](CO)C(=O)N[C@@H](CC(C)C)C(=O)NCC(=O)N[C@@H](CCCCN)C(=O)N[C@@H](Cc1c[nH]cn1)C(=O)N[C@@H](CC(C)C)C(=O)N[C@@H](CCCCN)C(=O)N[C@@H](CO)C(=O)N[C@H](CC(=O)N[C@@H](CCC(=O)O)C(=O)N[C@@H](CCCNC(=N)N)C(=O)N[C@H](C(=O)N[C@@H](CCC(=O)O)C(=O)N[C@@H](Cc1cccc2ccccc12)C(=O)N[C@@H](CC(C)C)C(=O)N[C@@H](CCCNC(=N)N)C(=O)N[C@@H](CCCCN)C(=O)N[C@@H](CC(C)C)C(=O)N[C@@H](CC(C)C)C(=O)N[C@@H](CCC(N)=O)C(=O)N[C@@H](CCCNC(=N)N)C(=O)N[C@H](C(N)=O)C(C)C)C(C)C)[C@@H](C)CC [SEQ ID NO: 45, [Aib^1, Nle^8, Ser^10, Lys^16, β-hIle^18,1-Nal^23, Leu^27, Arg^30] hPTH (1-31)-NH2] (H-[Aib]VSEIQL[Nle]HSLGKHLKS[β3hI]ERVE[1Nal]LRKLLQRV-NH2) | 6 nM | 0.09 nM | 72 | – | – | – |
| CCCC[C@H](NC(=O)[C@H](CC(C)C)NC(=O)[C@H](CCC(N)=O)NC(=O)[C@@H](NC(=O)[C@H](CCC(=O)O)NC(=O)[C@H](CO)NC(=O)[C@@H](NC(=O)[C@@H](N)CO)C(C)C)[C@@H](C)CC)C(=O)N[C@@H](Cc1c[nH]cn1)C(=O)N[C@@H](CCC(=O)O)C(=O)N[C@@H](CC(C)C)C(=O)NCC(=O)N[C@@H](CCCCN)C(=O)N[C@@H](Cc1c[nH]cn1)C(=O)N[C@@H](CC(C)C)C(=O)N[C@@H](CC(N)=O)C(=O)N[C@@H](CO)C(=O)N[C@H](CC(=O)N[C@@H](CCC(=O)O)C(=O)N[C@@H](CCCNC(=N)N)C(=O)N[C@H](C(=O)N[C@@H](CCC(=O)O)C(=O)N[C@@H](Cc1cccc2ccccc12)C(=O)N[C@@H](CC(C)C)C(=O)N[C@@H](CCCNC(=N)N)C(=O)N[C@@H](CCCCN)C(=O)N[C@@H](CC(C)C)C(=O)N[C@@H](CC(C)C)C(=O)N[C@@H](CCC(N)=O)C(=O)N[C@@H](CC(=O)O)C(=O)N[C@H](C(=O)N[C@@H](Cc1c[nH]cn1)C(=O)N[C@@H](CC(N)=O)C(=O)N[C@@H](Cc1ccccc1)C(N)=O)C(C)C)C(C)C)[C@@H](C)CC [SEQ ID NO: 24, [Nle^8, Glu^10, β-hIle^18,1-Nal^23, Leu^27] hPTH (1-34)-NH2] (H-SVSEIQL[Nle]HELGKHLNS[β3hI]ERVE[1Nal]LRKLLQDVHNF-NH2) | 3 nM | 0.13 nM | 24 | – | – | – |
| CCCC[C@H](NC(=O)[C@H](CC(C)C)NC(=O)[C@H](CCC(N)=O)NC(=O)[C@@H](NC(=O)[C@H](CCC(=O)O)NC(=O)[C@H](CO)NC(=O)[C@@H](NC(=O)[C@@H](N)CO)C(C)C)[C@@H](C)CC)C(=O)N[C@@H](Cc1c[nH]cn1)C(=O)N[C@@H](CC(N)=O)C(=O)N[C@@H](CC(C)C)C(=O)NCC(=O)N[C@@H](CCCCN)C(=O)N[C@@H](Cc1c[nH]cn1)C(=O)N[C@@H](CC(C)C)C(=O)N[C@@H](CC(N)=O)C(=O)N[C@@H](CO)C(=O)N[C@H](CC(=O)N[C@@H](CCC(=O)O)C(=O)N[C@@H](CCCNC(=N)N)C(=O)N[C@H](C(=O)N[C@@H](CCC(=O)O)C(=O)N[C@@H](Cc1cccc2ccccc12)C(=O)N[C@@H](CC(C)C)C(=O)N[C@@H](CCCNC(=N)N)C(=O)N[C@@H](CCCCN)C(=O)N[C@@H](CC(C)C)C(=O)N[C@@H](CC(C)C)C(=O)N[C@@H](CCC(N)=O)C(=O)N[C@@H](Cc1c[nH]cn1)C(=O)N[C@H](C(=O)N[C@@H](Cc1c[nH]cn1)C(=O)N[C@@H](CC(N)=O)C(=O)N[C@@H](Cc1ccccc1)C(N)=O)C(C)C)C(C)C)[C@@H](C)CC [SEQ ID NO: 25, [Nle^8, β-hIle^18,1-Nal^23, Leu^27, His^30] hPTH (1-34)-NH2] (H-SVSEIQL[Nle]HNLGKHLNS[β3hI]ERVE[1Nal]LRKLLQHVHNF-NH2) | 13 nM | 0.18 nM | 72 | – | – | – |
| CCCC[C@H](NC(=O)[C@H](CC(C)C)NC(=O)[C@H](CCC(N)=O)NC(=O)[C@@H](NC(=O)[C@H](CCC(=O)O)NC(=O)[C@H](CO)NC(=O)[C@@H](NC(=O)[C@@H](N)CO)C(C)C)[C@@H](C)CC)C(=O)N[C@@H](Cc1c[nH]cn1)C(=O)N[C@@H](CC(N)=O)C(=O)N[C@@H](CC(C)C)C(=O)NCC(=O)N[C@@H](CCCCN)C(=O)N[C@@H](Cc1c[nH]cn1)C(=O)N[C@@H](CC(C)C)C(=O)N[C@@H](CC(N)=O)C(=O)N[C@@H](CO)C(=O)N[C@H](CC(=O)N[C@@H](CCC(=O)O)C(=O)N[C@@H](CCCNC(=N)N)C(=O)N[C@H](C(=O)N[C@@H](CCC(=O)O)C(=O)N[C@@H](Cc1cccc2ccccc12)C(=O)N[C@@H](CC(C)C)C(=O)N[C@@H](CCCNC(=N)N)C(=O)N[C@@H](CCCCN)C(=O)N[C@@H](CC(C)C)C(=O)N[C@@H](CC(C)C)C(=O)N[C@@H](CCC(N)=O)C(=O)N[C@@H](CC(=O)O)C(=O)N[C@H](C(N)=O)C(C)C)C(C)C)[C@@H](C)CC [SEQ ID NO: 1, [Nle^8, β-hIle^18,1-Nal^23, Leu^27] hPTH-(1-31)-NH2] (H-SVSEIQL[Nle]HNLGKHLNS[β3hI]ERVE[1Nal]LRKLLQDV-NH2; N-terminus assumed) | 32 nM | 0.09 nM | 339 | Improved potency | – | – |
| CCCC[C@H](NC(=O)[C@H](CC(C)C)NC(=O)[C@H](CCC(N)=O)NC(=O)[C@@H](NC(=O)[C@H](CCC(=O)O)NC(=O)[C@H](CO)NC(=O)[C@@H](NC(=O)[C@@H](N)CO)C(C)C)[C@@H](C)CC)C(=O)N[C@@H](Cc1c[nH]cn1)C(=O)N[C@@H](CC(N)=O)C(=O)N[C@@H](CC(C)C)C(=O)NCC(=O)N[C@@H](CCCCN)C(=O)N[C@@H](Cc1c[nH]cn1)C(=O)N[C@@H](CC(C)C)C(=O)N[C@@H](CC(N)=O)C(=O)N[C@@H](CO)C(=O)N[C@H](CC(=O)N[C@@H](CCC(=O)O)C(=O)N[C@@H](CCCNC(=N)N)C(=O)N[C@H](C(=O)N[C@@H](CCC(=O)O)C(=O)N[C@@H](Cc1cccc2ccccc12)C(=O)N[C@@H](CC(C)C)C(=O)N[C@@H](CCCNC(=N)N)C(=O)N[C@@H](CCCCN)C(=O)N[C@@H](CC(C)C)C(=O)N[C@@H](CC(C)C)C(=O)N[C@@H](CCC(N)=O)C(=O)N[C@@H](CC(=O)O)C(=O)N[C@H](C(=O)N[C@@H](Cc1c[nH]cn1)C(=O)N[C@@H](CCCCN)C(=O)N[C@@H](Cc1ccccc1)C(N)=O)C(C)C)C(C)C)[C@@H](C)CC [SEQ ID NO: 28, [Nle^8, β-hIle^18,1-Nal^23, Leu^27, Lys^33] hPTH (1-34)-NH2] (H-SVSEIQL[Nle]HNLGKHLNS[β3hI]ERVE[1Nal]LRKLLQDVHKF-NH2) | 32 nM | – | 209 | – | – | – |
| CCCC[C@H](NC(=O)CCNC(=O)[C@H](CC(N)=O)NC(=O)[C@H](CC(C)C)NC(=O)[C@H](Cc1c[nH]cn1)NC(=O)[C@H](CCCCN)NC(=O)CNC(=O)[C@H](CC(C)C)NC(=O)[C@H](CC(N)=O)NC(=O)[C@H](Cc1c[nH]cn1)NC(=O)[C@H](CCCC)NC(=O)[C@H](CC(C)C)NC(=O)[C@H](CCC(N)=O)NC(=O)[C@@H](NC(=O)[C@H](CCC(=O)O)NC(=O)[C@H](CO)NC(=O)[C@@H](NC(=O)C(C)(C)N)C(C)C)[C@@H](C)CC)C(=O)N[C@@H](CCC(=O)O)C(=O)N[C@@H](CCCNC(=N)N)C(=O)N[C@H](C(=O)N[C@@H](CCC(=O)O)C(=O)N[C@@H](Cc1ccc2ccccc2c1)C(=O)N[C@@H](CC(C)C)C(=O)N[C@@H](CCCNC(=N)N)C(=O)N[C@@H](CCCCN)C(=O)N[C@@H](CCCCN)C(=O)N[C@@H](CC(C)C)C(=O)N[C@@H](CCC(N)=O)C(=O)N[C@@H](CC(=O)O)C(=O)N[C@H](C(=O)N[C@@H](Cc1c[nH]cn1)C(=O)N[C@@H](CC(N)=O)C(=O)N[C@@H](Cc1ccccc1)C(N)=O)C(C)C)C(C)C [SEQ ID NO: 13, [Aib^1, Nle^8,18, β-Ala^17,2-Nal^23] hPTH (1-34)-NH2] (H-[Aib]VSEIQL[Nle]HNLGKHLN[βAla][Nle]ERVE[2Nal]LRKKLQDVHNF-NH2; N-terminus assumed) | – | – | 213 | – | 46 nM | 0.22 nM |
